Measurements from patent US9539252B2, “Piperazine-substituted benzothiophene derivatives as antipsychotic agents” (OTSUKA PHARMACEUTICAL CO., LTD., priority 2011, dated 2017).

Experiment: Solubility in oil (sesame oil, benzyl benzoate), visual observation
Details: oil or lipid, thermodynamic from solid
Description: Each of the Example compounds was examined for the solubility in oil (sesame oil, benzyl benzoate).
For the specific gravity of an oil, the following values were applied. • sesame oil (specific gravity: 0.914-0.921) • benzyl benzoate (specific gravity: 1.123) • (Method)
Example compound is measured in a microtube and an oil (sesame oil, or, benzyl benzoate) in an amount to make the concentration 10 mg/0.1 ml is added. After stirring, the solubility is evaluated by visual observation. When the compound is not dissolved, the mixture is heated, and the solubility is evaluated after cooling.

Row | SMILES | solubility (benzyl benzoate) [mg/mL] | solubility (sesame oil) [mg/mL]
1 | CCC(C)C(=O)OCn1c(=O)ccc2ccc(OCCCCN3CCN(c4cccc5sccc45)CC3)cc21 (stereo not drawn) [Example 87, 2-methylbutyric acid 7-[4-(4-benzo[b]thiophen-4-ylpiperazin-1-yl)butoxy]-2-oxo-2H-quinolin-1-ylmethyl ester] | > 100 | 
2 | O=C(OCn1c(=O)ccc2ccc(OCCCCN3CCN(c4cccc5sccc45)CC3)cc21)N1CCOCC1 [Example 67, morpholine-4-carboxylic acid 7-[4-(4-benzo[b]thiophen-4-ylpiperazin-1-yl)butoxy]-2-oxo-2H-quinolin-1-ylmethyl ester] | > 100 | 
3 | O=C(OCN1C(=O)CCc2ccc(OCCCCN3CCN(c4cccc5sccc45)CC3)cc21)C1CCC1 [Example 127, cyclobutanecarboxylic acid 7-[4-(4-benzo[b]thiophen-4-ylpiperazin-1-yl)butoxy]-2-oxo-3,4-dihydro-2H-quinolin-1-ylmethyl ester] | > 100 | 
4 | O=C(OCN1C(=O)CCc2ccc(OCCCCN3CCN(c4cccc5sccc45)CC3)cc21)C1CCCCCC1 [Example 106, cycloheptanecarboxylic acid 7-[4-(4-benzo[b]thiophen-4-ylpiperazin-1-yl)butoxy]-2-oxo-3,4-dihydro-2H-quinolin-1-ylmethyl ester] | > 100 | 
5 | CCCCCCCCCCCCOC(=O)OCn1c(=O)ccc2ccc(OCCCCN3CCN(c4cccc5sccc45)CC3)cc21 [Example 134, carbonic acid 7-[4-(4-benzo[b]thiophen-4-ylpiperazin-1-yl)butoxy]-2-oxo-2H-quinolin-1-ylmethyl ester dodecyl ester] | > 100 | > 100
6 | CCCCCCCCCCCCCCC(=O)OCN1C(=O)CCc2ccc(OCCCCN3CCN(c4cccc5sccc45)CC3)cc21 [Example 91, pentadecanoic acid 7-[4-(4-benzo[b]thiophen-4-ylpiperazin-1-yl)butoxy]-2-oxo-3,4-dihydro-2H-quinolin-1-ylmethyl ester] | > 100 | 
7 | O=C(OCn1c(=O)ccc2ccc(OCCCCN3CCN(c4cccc5sccc45)CC3)cc21)c1ccccc1 [Example 12, benzoic acid 7-[4-(4-benzo[o]thiophen-4-ylpiperazin-1-yl)butoxy]-2-oxo-2H-quinolin-1-ylmethyl ester] | > 100 | 
8 | CCCCCCCCCCCC(=O)OCn1c(=O)ccc2ccc(OCCCCN3CCN(c4cccc5sccc45)CC3)cc21 [Example 22, dodecanoic acid 7-[4-(4-benzo[b]thiophen-4-ylpiperazin-1-yl)butoxy]-2-oxo-2H-quinolin-1-ylmethyl ester] | > 100 | 
9 | O=C(NC1CCCCC1)OCn1c(=O)ccc2ccc(OCCCCN3CCN(c4cccc5sccc45)CC3)cc21 [Example 71, N-cyclohexylcarbamic acid 7-[4-(4-benzo[b]thiophen-4-ylpiperazin-1-yl)butoxy]-2-oxo-2H-quinolin-1-ylmethyl ester] | > 100 | 
10 | CC(C)CCC(=O)OCn1c(=O)ccc2ccc(OCCCCN3CCN(c4cccc5sccc45)CC3)cc21 [Example 126, 4-methylpentanoic acid 7-[4-(4-benzo[b]thiophen-4-ylpiperazin-1-yl)butoxy]-2-oxo-2H-quinolin-1-ylmethyl ester] | > 100 | 
11 | O=C(NCCC(F)(F)F)OCN1C(=O)CCc2ccc(OCCCCN3CCN(c4cccc5sccc45)CC3)cc21 [Example 93, N-(3,3,3-trifluoropropyl)carbamic acid 7-[4-(4-benzo[b]thiophen-4-ylpiperazin-1-yl)butoxy]-2-oxo-3,4-dihydro-2H-quinolin-1-ylmethyl ester] | > 100 | 
12 | COC(=O)CN(C)C(=O)OCn1c(=O)ccc2ccc(OCCCCN3CCN(c4cccc5sccc45)CC3)cc21 [Example 73, ({7-[4-(4-benzo[b]thiophen-4-ylpiperazin-1-yl)butoxy]-2-oxo-2H-quinolin-1-ylmethoxycarbonyl}methylamino)acetic acid methyl ester] | > 100 | 
13 | CC(C)(C)OC(=O)CC(=O)OCN1C(=O)CCc2ccc(OCCCCN3CCN(c4cccc5sccc45)CC3)cc21 [Example 121, malonic acid 7-[4-(4-benzo[b]thiophen-4-ylpiperazin-1-yl)butoxy]-2-oxo-3,4-dihydro-2H-quinolin-1-ylmethyl ester tert-butyl ester] | > 100 | 
14 | CCCCCCCCCCCCCCCCCCNC(=O)OCn1c(=O)ccc2ccc(OCCCCN3CCN(c4cccc5sccc45)CC3)cc21 [Example 38, N-octadecylcarbamic acid 7-[4-(4-benzo[b]thiophen-4-ylpiperazin-3-yl)butoxy]-2-oxo-2H-quinolin-1-ylmethyl ester] | > 100 | 
15 | O=C(NCC1CCCCC1)OCn1c(=O)ccc2ccc(OCCCCN3CCN(c4cccc5sccc45)CC3)cc21 [Example 63, N-cyclohexylmethylcarbamic acid 7-[4-(4-benzo[b]thiophen-4-ylpiperazin-1-yl)butoxy]-2-oxo-2H-quinolin-1-ylmethyl ester] | > 100 | 
16 | CCCCCCCCCCCCCCCCOC(=O)OCn1c(=O)ccc2ccc(OCCCCN3CCN(c4cccc5sccc45)CC3)cc21 [Example 180, carbonic acid 7-[4-(4-benzo[b]thiophen-4-ylpiperazin-1-yl)butoxy]-2-oxo-2H-quinolin-1-ylmethyl ester hexadecyl ester] | > 100 | > 100

Row | SMILES | solubility (benzyl benzoate) [mg/mL] | solubility (sesame oil) [mg/mL]
17 | O=C(OCn1c(=O)ccc2ccc(OCCCCN3CCN(c4cccc5sccc45)CC3)cc21)c1ccc2occc2c1 [Example 137, benzofuran-5-carboxylic acid 7-[4-(4-benzo[b]thiophen-4-ylpiperazin-1-yl)butoxy]-2-oxo-2H-quinolin-1-ylmethyl ester] | > 100 | 
18 | CCCCN(C)C(=O)OCN1C(=O)CCc2ccc(OCCCCN3CCN(c4cccc5sccc45)CC3)cc21 [Example 16, N-butyl-N-methylcarbamic acid 7-[4-(4-benzo[b]thiophen-4-ylpiperazin-1-yl)butoxy]-2-oxo-3,4-dihydro-2H-quinolin-1-ylmethyl ester] | > 100 | 
19 | CCCCCC(=O)OCn1c(=O)ccc2ccc(OCCCCN3CCN(c4cccc5sccc45)CC3)cc21 [Example 58, hexanoic acid 7-[4-(4-benzo[b]thiophen-4-ylpiperazin-1-yl)butoxy]-2-oxo-2H-quinolin-1-ylmethyl ester] | > 100 | 
20 | CCCCCCCCCCCCCC(=O)OCn1c(=O)ccc2ccc(OCCCCN3CCN(c4cccc5sccc45)CC3)cc21 [Example 65, tetradecanoic acid 7-[4-(4-benzo[b]thiophen-4-ylpiperazin-1-yl)butoxy]-2-oxo-2H-quinolin-1-ylmethyl ester] | > 100 | 
21 | CCCCOC(=O)OCN1C(=O)CCc2ccc(OCCCCN3CCN(c4cccc5sccc45)CC3)cc21 [Example 151, carbonic acid 7-[4-(4-benzo[b]thiophen-4-ylpiperazin-1-yl)butoxy]-2-oxo-3,4-dihydro-2H-quinolin-1-ylmethyl ester butyl ester] | > 100 | 
22 | CCCCCCCC/C=C\CCCCCCCC(=O)OCN1C(=O)CCc2ccc(OCCCCN3CCN(c4cccc5sccc45)CC3)cc21 [Example 33, (Z)-octadec-9-enoic acid 7-[4-(4-benzo[b]thiophen-4-ylpiperazin-1-yl)butoxy]-2-oxo-3,4-dihydro-2H-quinolin-1-ylmethyl ester] | > 100 | 
23 | CCCCCCCCCCCCCCCCCCN(C)C(=O)OCN1C(=O)CCc2ccc(OCCCCN3CCN(c4cccc5sccc45)CC3)cc21 [Example 79, N-methyl-N-octadecylcarbamic acid 7-[4-(4-benzo[b]thiophen-4-ylpiperazin-1-yl)butoxy]-2-oxo-3,4-dihydro-2H-quinolin-1-ylmethyl ester] | > 100 | > 100
24 | O=C(NOCc1ccccc1)OCn1c(=O)ccc2ccc(OCCCCN3CCN(c4cccc5sccc45)CC3)cc21 [Example 69, 7-[4-(4-benzo[b]thiophen-4-ylpiperazin-1-yl)butoxy]-2-oxo-2H-quinolin-1-ylmethyl benzyloxycarbamate] | > 100 | 
25 | CN1CCC(C(=O)OCN2C(=O)CCc3ccc(OCCCCN4CCN(c5cccc6sccc56)CC4)cc32)CC1 [Example 102, 1-methylpiperidine-4-carboxylic acid 7-[4-(4-benzo[b]thiophen-4-ylpiperazin-1-yl)butoxy]-2-oxo-3,4-dihydro-2H-quinolin-1-ylmethyl ester] | > 100 | 
26 | CCCCCCCCCCOC(=O)OCn1c(=O)ccc2ccc(OCCCCN3CCN(c4cccc5sccc45)CC3)cc21 [Example 135, carbonic acid 7-[4-(4-benzo[b]thiophen-4-ylpiperazin-1-yl)butoxy]-2-oxo-2H-quinolin-1-ylmethyl ester decyl ester] | > 100 | > 100
27 | CCCCCC(=O)OCN1C(=O)CCc2ccc(OCCCCN3CCN(c4cccc5sccc45)CC3)cc21 [Example 70, hexanoic acid 7-[4-(4-benzo[b]thiophen-4-ylpiperazin-1-yl)butoxy]-2-oxo-3,4-dihydro-2H-quinolin-1-ylmethyl ester] | > 100 | 
28 | O=C(OCN1C(=O)CCc2ccc(OCCCCN3CCN(c4cccc5sccc45)CC3)cc21)C1CCCC1 [Example 13, cyclopentanecarboxylic acid 7-[4-(4-benzo[b]thiophen-4-ylpiperazin-1-yl)butoxy]-2-oxo-3,4-dihydro-2H-quinolin-1-ylmethyl ester] | > 100 | 
29 | CCC(C)C(=O)OCN1C(=O)CCc2ccc(OCCCCN3CCN(c4cccc5sccc45)CC3)cc21 (stereo not drawn) [Example 77, 2-methylbutyric acid 7-[4-(4-benzo[b]thiophen-4-ylpiperazin-1-yl)butoxy]-2-oxo-3,4-dihydro-2H-quinolin-1-ylmethyl ester] | > 100 | 
30 | CCCCCCCCCCCCCCOC(=O)OCn1c(=O)ccc2ccc(OCCCCN3CCN(c4cccc5sccc45)CC3)cc21 [Example 179, carbonic acid 7-[4-(4-benzo[b]thiophen-4-ylpiperazin-1-yl)butoxy]-2-oxo-2H-quinolin-1-ylmethyl ester tetradecyl ester] | > 100 | > 100
31 | O=C(NCCC(F)(F)F)OCn1c(=O)ccc2ccc(OCCCCN3CCN(c4cccc5sccc45)CC3)cc21 [Example 139, N-(3,3,3-trifluoropropyl)carbamic acid 7-[4-(4-benzo[b]thiophen-4-ylpiperazin-1-yl)butoxy]-2-oxo-2H-quinolin-1-ylmethyl ester] | > 100 | 
